We go through 14 compounds from PubChem BioAssay (NCI).

Test systems include SK-MEL-2 melanoma; SK-MEL-28 melanoma; IGROV1 ovarian; HT29 colon; MOLT-4 leukemia; DU-145 prostate; MCF7 breast; SNB-19 CNS; RPMI-8226 leukemia; NCI-H460 lung.
What all share (experiment): DTP human tumour cell line panel, 48 h

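Briefly, cells in 96-well plates were exposed to five compound concentrations for 48 h, and endpoints were estimated by linear interpolation. TGI denotes the concentration required for complete inhibition of growth.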

With `O=[N+]([O-])c1ccc(-n2nc3ccc4nonc4c3n2)cc1`, the total growth inhibition concentration (TGI) in the test with SK-MEL-2 melanoma, in the test on SK-MEL-28 melanoma, in the test with IGROV1 ovarian, with HT29 colon, in the test on MOLT-4 leukemia and in the test on DU-145 prostate was > 100 µM each time. For the same compound, the TGI with MCF7 breast, in the test with SNB-19 CNS, with RPMI-8226 leukemia and with NCI-H460 lung was > 100 µM each time.

As for `Nc1[nH]c(=O)nc2c1ncn2C1OC(CO)C(O)C1O` (stereo not drawn), the TGI (usually the concentration at which net growth stops) with SK-MEL-2 melanoma is > 100 µM; in the test with SK-MEL-28 melanoma, > 100 µM; with IGROV1 ovarian, > 100 µM; with HT29 colon, > 100 µM; with MOLT-4 leukemia it was 63.3 µM; with DU-145 prostate, 66.3 µM. The TGI in the test on MCF7 breast, with SNB-19 CNS, in the test on RPMI-8226 leukemia and with NCI-H460 lung was > 100 µM throughout.

As for `CCN1CC2(C)CCC(OC)C34C5CC6CCC(O)(C5C(=O)O6)C(C(O)C23)C14` (stereo not drawn), the concentration for total growth inhibition (TGI) in the test with SK-MEL-2 melanoma, in the test with SK-MEL-28 melanoma, with IGROV1 ovarian, in the test with HT29 colon, in the test with MOLT-4 leukemia and with DU-145 prostate was > 100 µM each time. Also, the total growth inhibition concentration (TGI) in the test on MCF7 breast, with SNB-19 CNS, in the test on RPMI-8226 leukemia and in the test with NCI-H460 lung was > 100 µM throughout.

As to `C[n+]1cccc2ccc3cccnc3c21`, the TGI was 97.1 µM with SK-MEL-2 melanoma; > 100 µM in the test on SK-MEL-28 melanoma; > 100 µM in the test with IGROV1 ovarian; > 100 µM in the test with HT29 colon; > 100 µM with MOLT-4 leukemia; > 100 µM in the test on DU-145 prostate. In addition, the TGI with MCF7 breast, in the test on SNB-19 CNS, in the test with RPMI-8226 leukemia and in the test on NCI-H460 lung was > 100 µM each time.

Take `COc1cc2c(cc1O)C1Cc3ccc(OC)c(O)c3C[N+]1(C)CC2` (stereo not drawn): the concentration for total growth inhibition (TGI) in the test on SK-MEL-2 melanoma, in the test on SK-MEL-28 melanoma, with IGROV1 ovarian, in the test on HT29 colon, with MOLT-4 leukemia and in the test with DU-145 prostate was > 100 µM in each case. Besides, the total growth inhibition concentration (TGI) in the test with MCF7 breast, with SNB-19 CNS, with RPMI-8226 leukemia and in the test with NCI-H460 lung was > 100 µM each time.

Take `Cc1cn(CCCCCCOC(=O)NC(CCCNC(N)=O)C(=O)O)c(=O)[nH]c1=O` (stereo not drawn): the total growth inhibition concentration (TGI) with SK-MEL-2 melanoma, with SK-MEL-28 melanoma, in the test with IGROV1 ovarian, in the test on HT29 colon, in the test with MOLT-4 leukemia and in the test with DU-145 prostate was > 100 µM each time. Also, the total growth inhibition concentration (TGI) in the test with MCF7 breast, with SNB-19 CNS, in the test on RPMI-8226 leukemia and in the test with NCI-H460 lung was > 100 µM each time.

Take `CN1CCN(C(=O)c2cn(Cc3cncn3Cc3ccc4c(c3)OCO4)cc2-c2cccc3ccccc23)CC1`: the concentration for total growth inhibition (TGI) in the test with SK-MEL-2 melanoma was 20.8 µM; in the test with SK-MEL-28 melanoma, 63.6 µM; in the test with IGROV1 ovarian, > 100 µM; in the test on HT29 colon it was > 95.5 µM; in the test on MOLT-4 leukemia, 33.6 µM; in the test with DU-145 prostate, > 100 µM. The TGI in the test with MCF7 breast is > 83.6 µM; in the test on SNB-19 CNS it was > 100 µM; in the test on RPMI-8226 leukemia it was 38.7 µM; in the test with NCI-H460 lung it was > 100 µM.

For the compound `COc1ccc(CCNC(=O)Cc2ccccc2CO)cc1OC`, the concentration for total growth inhibition (TGI) in the test on SK-MEL-2 melanoma, in the test on SK-MEL-28 melanoma, in the test with IGROV1 ovarian, in the test on HT29 colon, in the test on MOLT-4 leukemia and in the test on DU-145 prostate was > 100 µM each time. For the same compound, the TGI in the test on MCF7 breast, in the test on RPMI-8226 leukemia and in the test on NCI-H460 lung was > 100 µM each time.

With `CC1=NN(C(=O)CC(=O)Nc2cccc(C)c2)C(=O)C1N=Nc1ccc(S(=O)(=O)CCOS(=O)(=O)O)cc1` (stereo not drawn), the TGI in the test on SK-MEL-2 melanoma is 2.67 µM; with SK-MEL-28 melanoma it was 19.7 µM; with IGROV1 ovarian, 12.4 µM; in the test with HT29 colon, 11.5 µM; in the test with MOLT-4 leukemia it was > 31.7 µM; in the test on DU-145 prostate it was > 100 µM. The TGI in the test with MCF7 breast is 13.4 µM; in the test on SNB-19 CNS it was 22.3 µM; in the test on RPMI-8226 leukemia it was > 100 µM; in the test on NCI-H460 lung, 11.8 µM.

Regarding `C[C@H]1S[C@@H](c2ccc(Cl)cc2Cl)N(NC(=O)c2ccncc2)C1=O`, the concentration for total growth inhibition (TGI) with SK-MEL-2 melanoma, in the test on SK-MEL-28 melanoma, in the test on IGROV1 ovarian, in the test with HT29 colon, in the test with MOLT-4 leukemia and with DU-145 prostate was > 100 µM each time. The TGI with MCF7 breast, in the test with SNB-19 CNS, in the test on RPMI-8226 leukemia and in the test with NCI-H460 lung was > 100 µM each time.

Take `CCC1(c2ccc(N3C(=O)c4cccc5cc([N+](=O)[O-])cc(c45)C3=O)cc2)CCC(=O)NC1=O` (stereo not drawn): the total growth inhibition concentration (TGI) with SK-MEL-2 melanoma is > 100 µM; with SK-MEL-28 melanoma, 86.8 µM; in the test with IGROV1 ovarian, 38.6 µM; in the test with HT29 colon, > 100 µM; in the test on MOLT-4 leukemia it was > 100 µM; in the test on DU-145 prostate, > 69.2 µM. The TGI was > 100 µM with MCF7 breast, > 74.3 µM in the test on SNB-19 CNS, > 100 µM with RPMI-8226 leukemia and > 50 µM with NCI-H460 lung.

Regarding `CSC(SC)=C(C(=O)c1ccc(Cl)cc1)n1c(=O)sc2cc(Br)ccc21`, the total growth inhibition concentration (TGI) in the test on SK-MEL-2 melanoma, with SK-MEL-28 melanoma, with IGROV1 ovarian, with HT29 colon, in the test with MOLT-4 leukemia and in the test on DU-145 prostate was > 100 µM in each case. Besides, the concentration for total growth inhibition (TGI) in the test with MCF7 breast, in the test with SNB-19 CNS, with RPMI-8226 leukemia and in the test on NCI-H460 lung was > 100 µM throughout.

Turning to `O=CCCCCCOCc1ccccc1`, the TGI was > 100 µM in the test on SK-MEL-2 melanoma; > 100 µM with SK-MEL-28 melanoma; > 100 µM in the test on IGROV1 ovarian; > 100 µM in the test with HT29 colon; 37.4 µM in the test with MOLT-4 leukemia; > 100 µM in the test on DU-145 prostate. In addition, the concentration for total growth inhibition (TGI) is > 100 µM in the test with MCF7 breast, > 100 µM with SNB-19 CNS, > 56.8 µM in the test with RPMI-8226 leukemia and > 54.9 µM in the test on NCI-H460 lung.

As to `O=C(O)CSC(CC(=O)c1ccc(Cl)cc1)c1ccc(Cl)cc1` (stereo not drawn), the TGI in the test on SK-MEL-2 melanoma was > 100 µM; with IGROV1 ovarian it was 54.5 µM; in the test on HT29 colon, > 100 µM; with MOLT-4 leukemia, 27 µM; in the test with DU-145 prostate, > 100 µM; in the test with MCF7 breast, > 100 µM. Besides, the TGI in the test with SNB-19 CNS is > 100 µM; in the test on RPMI-8226 leukemia, 61.2 µM; with NCI-H460 lung, > 100 µM.
